# Reference: publication PMC12130229, “Inherent fast inactivation particle of Nav channels as a new binding site for a neurotoxin” (The EMBO Journal, 2025)
# Columns and labels:
# rNav1.8 = biological target: T1, rNav1.8 (Rattus norvegicus, UniProt Q62968); experiment: Patch clamp, intracellular KIFMK: block of current density (Fig 6E,F); format: cell-based; details: Fig 6F
# T1 construct: expressed in transfected cells; host or cells: ND7/23
# hNav1.7 = biological target: T2, hNav1.7 (Homo sapiens, UniProt Q15858); format: cell-based
# T2 construct: expressed in transfected cells; host or cells: HEK293T
# T2 sequence (Q15858 whole entry): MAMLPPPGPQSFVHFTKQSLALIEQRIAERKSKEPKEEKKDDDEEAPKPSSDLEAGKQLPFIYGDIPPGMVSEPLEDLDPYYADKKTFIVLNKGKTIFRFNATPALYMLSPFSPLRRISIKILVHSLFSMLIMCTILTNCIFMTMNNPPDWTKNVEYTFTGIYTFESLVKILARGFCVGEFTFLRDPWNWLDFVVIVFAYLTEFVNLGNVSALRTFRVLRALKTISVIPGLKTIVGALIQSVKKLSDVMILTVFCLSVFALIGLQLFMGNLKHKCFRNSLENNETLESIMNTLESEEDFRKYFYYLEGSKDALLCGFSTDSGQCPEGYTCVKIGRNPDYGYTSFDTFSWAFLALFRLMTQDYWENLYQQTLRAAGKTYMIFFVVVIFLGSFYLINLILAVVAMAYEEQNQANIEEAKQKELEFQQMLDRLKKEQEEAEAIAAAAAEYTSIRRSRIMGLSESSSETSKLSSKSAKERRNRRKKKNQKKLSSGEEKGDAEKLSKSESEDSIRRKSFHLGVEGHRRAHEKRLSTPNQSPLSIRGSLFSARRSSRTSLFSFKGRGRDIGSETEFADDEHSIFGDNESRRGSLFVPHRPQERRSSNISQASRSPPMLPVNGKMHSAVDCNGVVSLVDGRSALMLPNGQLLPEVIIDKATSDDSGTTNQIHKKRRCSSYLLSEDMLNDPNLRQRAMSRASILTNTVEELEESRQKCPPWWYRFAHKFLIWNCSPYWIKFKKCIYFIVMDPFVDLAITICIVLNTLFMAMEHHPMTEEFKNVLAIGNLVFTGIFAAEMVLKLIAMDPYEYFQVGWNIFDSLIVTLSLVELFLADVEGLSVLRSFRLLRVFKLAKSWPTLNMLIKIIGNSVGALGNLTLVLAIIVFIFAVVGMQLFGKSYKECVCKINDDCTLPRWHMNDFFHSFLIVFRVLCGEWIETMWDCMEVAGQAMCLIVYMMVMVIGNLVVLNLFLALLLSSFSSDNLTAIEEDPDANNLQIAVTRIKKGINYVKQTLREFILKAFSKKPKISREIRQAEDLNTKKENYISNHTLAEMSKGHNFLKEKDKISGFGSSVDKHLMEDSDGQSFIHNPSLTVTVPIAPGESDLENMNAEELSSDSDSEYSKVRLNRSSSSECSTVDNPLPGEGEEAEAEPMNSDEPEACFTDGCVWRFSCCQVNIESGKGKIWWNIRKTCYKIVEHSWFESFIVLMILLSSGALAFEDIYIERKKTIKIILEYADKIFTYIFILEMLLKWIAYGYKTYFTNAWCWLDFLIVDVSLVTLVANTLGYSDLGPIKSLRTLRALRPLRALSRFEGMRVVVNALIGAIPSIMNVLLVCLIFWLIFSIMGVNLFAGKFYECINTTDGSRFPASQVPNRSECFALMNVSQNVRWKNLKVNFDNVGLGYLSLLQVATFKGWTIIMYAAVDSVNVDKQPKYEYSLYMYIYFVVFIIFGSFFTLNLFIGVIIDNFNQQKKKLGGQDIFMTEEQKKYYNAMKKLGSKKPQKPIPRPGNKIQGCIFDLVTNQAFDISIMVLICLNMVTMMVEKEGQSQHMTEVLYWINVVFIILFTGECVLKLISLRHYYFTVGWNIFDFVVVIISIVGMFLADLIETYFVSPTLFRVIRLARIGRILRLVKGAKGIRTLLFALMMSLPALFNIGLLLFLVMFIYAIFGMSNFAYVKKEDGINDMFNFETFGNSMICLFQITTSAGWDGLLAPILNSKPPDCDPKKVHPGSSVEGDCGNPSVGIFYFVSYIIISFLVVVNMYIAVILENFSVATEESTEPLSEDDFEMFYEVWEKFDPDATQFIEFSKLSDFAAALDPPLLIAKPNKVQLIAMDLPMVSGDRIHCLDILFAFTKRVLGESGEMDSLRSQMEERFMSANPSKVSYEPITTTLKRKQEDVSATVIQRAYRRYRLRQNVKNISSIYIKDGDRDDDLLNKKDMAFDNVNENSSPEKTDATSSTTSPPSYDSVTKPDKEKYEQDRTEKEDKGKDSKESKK
# T2 sequence (Q07699 19-218, further chain): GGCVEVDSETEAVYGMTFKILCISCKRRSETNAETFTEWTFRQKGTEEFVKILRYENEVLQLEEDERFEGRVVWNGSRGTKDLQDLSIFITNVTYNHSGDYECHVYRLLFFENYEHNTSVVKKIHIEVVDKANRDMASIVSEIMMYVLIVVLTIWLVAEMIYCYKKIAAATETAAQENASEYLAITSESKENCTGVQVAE
# T2 sequence (O60939 30-215, further chain): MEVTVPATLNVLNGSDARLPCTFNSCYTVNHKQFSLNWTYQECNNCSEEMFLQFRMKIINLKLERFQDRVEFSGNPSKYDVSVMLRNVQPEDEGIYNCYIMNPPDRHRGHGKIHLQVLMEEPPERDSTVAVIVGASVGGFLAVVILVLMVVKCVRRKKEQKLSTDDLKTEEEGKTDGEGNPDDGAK
# T1 sequence (Q62968 whole entry): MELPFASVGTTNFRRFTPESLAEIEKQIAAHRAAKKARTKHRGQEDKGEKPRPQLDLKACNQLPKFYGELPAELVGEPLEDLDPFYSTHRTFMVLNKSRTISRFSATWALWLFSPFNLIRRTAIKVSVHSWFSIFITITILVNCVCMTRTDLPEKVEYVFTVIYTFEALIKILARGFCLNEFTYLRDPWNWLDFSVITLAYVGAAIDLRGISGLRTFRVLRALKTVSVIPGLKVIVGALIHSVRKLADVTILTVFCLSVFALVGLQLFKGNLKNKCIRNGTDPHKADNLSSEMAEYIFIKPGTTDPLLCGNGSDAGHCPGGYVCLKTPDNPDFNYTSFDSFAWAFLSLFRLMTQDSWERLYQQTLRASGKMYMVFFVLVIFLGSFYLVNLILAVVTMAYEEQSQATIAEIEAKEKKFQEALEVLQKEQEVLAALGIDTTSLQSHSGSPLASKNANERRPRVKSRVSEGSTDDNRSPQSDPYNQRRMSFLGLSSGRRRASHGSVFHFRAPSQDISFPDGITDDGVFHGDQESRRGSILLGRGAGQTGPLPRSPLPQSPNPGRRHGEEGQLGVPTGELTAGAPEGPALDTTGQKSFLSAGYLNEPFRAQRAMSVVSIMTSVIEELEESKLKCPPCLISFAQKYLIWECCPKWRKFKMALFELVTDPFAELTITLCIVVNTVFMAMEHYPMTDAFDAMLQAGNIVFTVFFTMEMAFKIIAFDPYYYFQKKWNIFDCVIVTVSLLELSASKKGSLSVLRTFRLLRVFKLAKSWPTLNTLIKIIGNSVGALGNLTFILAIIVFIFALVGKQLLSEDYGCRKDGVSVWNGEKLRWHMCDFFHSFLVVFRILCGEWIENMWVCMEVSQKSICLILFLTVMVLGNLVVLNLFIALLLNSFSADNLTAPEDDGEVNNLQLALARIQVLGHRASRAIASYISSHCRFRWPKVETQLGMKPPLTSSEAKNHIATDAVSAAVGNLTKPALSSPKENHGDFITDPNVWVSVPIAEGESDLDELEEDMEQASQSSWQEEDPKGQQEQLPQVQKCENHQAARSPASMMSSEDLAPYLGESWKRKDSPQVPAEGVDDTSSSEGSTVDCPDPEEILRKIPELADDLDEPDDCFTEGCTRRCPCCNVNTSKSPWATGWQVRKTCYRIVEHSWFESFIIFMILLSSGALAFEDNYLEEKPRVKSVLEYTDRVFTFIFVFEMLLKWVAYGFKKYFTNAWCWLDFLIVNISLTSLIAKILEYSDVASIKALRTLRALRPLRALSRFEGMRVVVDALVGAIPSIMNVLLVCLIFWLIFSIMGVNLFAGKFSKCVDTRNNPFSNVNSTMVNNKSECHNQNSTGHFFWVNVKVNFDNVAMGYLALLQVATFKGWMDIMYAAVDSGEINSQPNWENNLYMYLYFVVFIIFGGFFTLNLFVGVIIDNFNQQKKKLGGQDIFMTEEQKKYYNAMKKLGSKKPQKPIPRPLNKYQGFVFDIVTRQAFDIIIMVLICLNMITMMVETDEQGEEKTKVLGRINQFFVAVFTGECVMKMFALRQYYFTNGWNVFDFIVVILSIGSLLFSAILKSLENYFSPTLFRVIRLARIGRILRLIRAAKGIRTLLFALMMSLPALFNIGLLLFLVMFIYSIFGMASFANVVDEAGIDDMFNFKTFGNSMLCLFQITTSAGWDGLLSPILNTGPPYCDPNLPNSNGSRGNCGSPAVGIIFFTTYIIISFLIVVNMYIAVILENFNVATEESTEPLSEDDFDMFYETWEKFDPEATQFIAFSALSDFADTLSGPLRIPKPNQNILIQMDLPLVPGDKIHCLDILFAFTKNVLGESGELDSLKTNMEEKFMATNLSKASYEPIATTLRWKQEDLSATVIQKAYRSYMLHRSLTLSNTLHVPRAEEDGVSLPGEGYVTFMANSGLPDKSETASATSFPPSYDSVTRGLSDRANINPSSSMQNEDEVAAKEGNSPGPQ
SMILES,IC50 for rNav1.4 and hNav1.5 relative to that for rNav1.8 (rNav1.8),inhibition of rpTx1-evoked persistent currents (hNav1.7)
CC[C@H](C)[C@H](NC(=O)[C@@H](N)CCCCN)C(=O)N[C@@H](Cc1ccccc1)C(=O)N[C@@H](CCSC)C(=O)N[C@@H](CCCCN)C(=O)O [KIFMK],two time smaller,
"NC1=N[C@H](O)[C@H]2[C@H]3O[C@]4(O)O[C@@H]([C@@H](O)[C@@]2(N1)[C@@H]4O)[C@]3(O)CO [TTX, tetrodotoxin]",,completely inhibited
